ChEMBL document CHEMBL3132819, “2-Hydroxy-substituted cinnamic acids and acetanilides are selective growth inhibitors of Mycobacterium tuberculosis” (Medchemcomm, 2014)
In brackets after ≈: the same amount, converted by molar mass.

Tests used:
[1] = test system: Mycolicibacterium smegmatis; experiment: Antibacterial activity against Mycobacterium smegmatis MC2 155 assessed as growth inhibition; format: functional; details: str. MC2 155
[2] = Selectivity index, ratio of GI50 for mouse RAW264.7 cells to MIC for Mycobacterium tuberculosis H37Rv ATCC 27294; format: toxicity; details: read-out: Selectivity Index
[3] = test system: Mycobacterium tuberculosis; experiment: Antibacterial activity against Mycobacterium tuberculosis H37Rv ATCC 27294 after 2 weeks by spot culture growth inhibition assay; format: functional; details: H37Rv ATCC 27294, 336 h
[4] = Cytotoxicity against mouse RAW264.7 cells assessed as growth inhibition after 48 hrs by trypan blue assay; format: cell-based

Row | SMILES | MIC [1] [µM] | selectivity ratio [2] | MIC [3] [µM] | GI50 at 48 h [4] [µM]
1 | O=C(O)/C=C/c1ccc2c(c1)OCO2 | > 600 | 8.8 | 312 (≈ 60 µg/mL) | 
2 | CC(=O)Nc1ccccc1O | > 600 | 31.8 | 132 (≈ 20 µg/mL) | 4200
3 | COC(=O)/C=C/c1cccc(O)c1 | > 600 | 3.8 | 224 (≈ 39.9 µg/mL) | 850
4 | CC(C)=CCC/C(C)=C/COc1ccc(/C=C/C(=O)O)cc1 | > 600 | 3.14 | 66.8 (≈ 20.1 µg/mL) | 210
5 | COC(=O)/C=C/c1ccc(OC/C=C(\C)CCC=C(C)C)cc1 | > 600 | 1.25 | 127 (≈ 39.9 µg/mL) | 159
6 | COC(=O)/C=C/c1ccc(OCC=C(C)C)cc1 | > 600 | 6 | 81.2 (≈ 20 µg/mL) | 487
7 | COC(=O)/C=C/c1cccc(OCC=C(C)C)c1 | > 600 | 12.2 | 244 (≈ 60.1 µg/mL) | 
8 | COC(=O)/C=C/c1ccccc1OCC=C(C)C | > 600 | < 6.4 | > 406 | 
9 | CC(C)=CCOc1cccc(/C=C/C(=O)O)c1 | > 600 | 7.53 | 172 (≈ 40 µg/mL) | 
10 | CC(C)=CCOc1ccccc1/C=C/C(=O)O | > 600 | 6.52 | 258 (≈ 59.9 µg/mL) | 
11 | CC(C)=CCOc1ccc(/C=C/C(=O)O)cc1 | > 600 | 15.6 | 86.1 (≈ 20 µg/mL) | 1340
12 | COC(=O)/C=C/c1ccccc1O | > 600 | 10 | 112 (≈ 20 µg/mL) | 1120
13 | O=C(O)/C=C/c1cccc(O)c1 | > 600 | 14.5 | 366 (≈ 60.1 µg/mL) | 5290
14 | CC(=O)Nc1ccc(O)cc1 [ACETAMINOPHEN] | > 600 | < 1.52 | > 661 | 1000
15 | O=C(O)/C=C/c1ccccc1 [CINNAMIC ACID] | > 600 | 24.2 | 270 (≈ 40 µg/mL) | 6550
16 | O=C(O)/C=C/c1ccc(O)cc1 [COUMARIC ACID] | > 600 | 18.7 | 244 (≈ 40.1 µg/mL) | 4560
17 | NNC(=O)c1ccncc1 [ISONIAZID] |  | 30000 | 0.73 (≈ 0.1 µg/mL) | 21900
18 | CC(=O)Nc1cccc(O)c1 [METACETAMOL] | > 600 | < 8.08 | > 661 | 5340
19 | COC(=O)/C=C/c1ccc(O)cc1 [METHYL P-HYDROXYCINNAMATE] | > 600 | 2.72 | 224 (≈ 39.9 µg/mL) | 609
20 | O=C(O)/C=C/c1ccccc1O [O-COUMARIC ACID] | > 600 | 37.4 | 122 (≈ 20 µg/mL) | 4560
21 | CO[C@H]1/C=C/O[C@@]2(C)Oc3c(C)c(O)c4c(O)c(c(/C=N/N5CCN(C)CC5)c(O)c4c3C2=O)NC(=O)/C(C)=C\C=C\[C@H](C)[C@H](O)[C@@H](C)[C@@H](O)[C@@H](C)[C@H](OC(C)=O)[C@@H]1C [RIFAMPIN] |  | 14000 | 0.0607 (≈ 0.05 µg/mL) | 850
